Reference: the supplement of paper PMC10307832

Columns and labels:
Experiment in all cases: relative viability (nuclei count vs DMSO), 5 days (fraction); higher = more cells survive
A549 = system: A549
How it was run: (§1)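 Values are medians from duplicate plates. Each reflects relative viability, defined as the nuclei count of treated wells over that of vehicle wells. Lung cancer cell lines in 1536-well plates were pin-tool dosed one day after seeding with one drug alone or with a fixed anchor-drug dose plus five library-drug doses (not always all listed) in √10 steps, then fixed, stained and imaged at 4× after 5 days.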

NCI-H1703 = system: NCI-H1703
How it was run: as §1

HCC-44 = system: HCC-44
How it was run: as §1

Calu-6 = system: Calu-6
How it was run: as §1

HCC-78 = system: HCC-78
How it was run: as §1

NCI-H1563 = system: NCI-H1563
How it was run: as §1

IA-LM = system: IA-LM
How it was run: as §1

NCI-H2087 = system: NCI-H2087
How it was run: as §1

NCI-H1299 = system: NCI-H1299
How it was run: as §1

EBC-1 = system: EBC-1
How it was run: as §1

NCI-H322M = system: NCI-H322M
How it was run: as §1

For `Cc1cn(-c2cc(NC(=O)c3ccc(C)c(Nc4nccc(-c5cccnc5)n4)c3)cc(C(F)(F)F)c2)cn1` [Nilotinib] + CS(=O)(=O)N1CCN(Cc2cc3nc(-c4cccc5[nH]ncc45)nc(N4CCOCC4)c3s2)CC1 [Pictilisib] (partner 1 µM), the relative viability (A549; first compound 0.003162 µM) was 0.743, the relative viability (A549; first compound 0.01 µM) was 0.6 and the relative viability (A549; first compound 0.03162 µM) was 0.368. The relative viability (A549; first compound 0.1 µM) was 0.374, the relative viability (NCI-H1703; first compound 0.001 µM) was 0.225 and the relative viability (NCI-H1703; first compound 0.003162 µM) was 0.291. It also gave a relative viability (NCI-H1703; first compound 0.01 µM) of 0.19, a relative viability (NCI-H1703; first compound 0.03162 µM) of 0.215 and a relative viability (NCI-H1703; first compound 0.1 µM) of 0.196. It also gave a relative viability (HCC-44; first compound 0.001 µM) of 0.607, a relative viability (HCC-44; first compound 0.003162 µM) of 0.743 and a relative viability (HCC-44; first compound 0.01 µM) of 0.589. It also gave a relative viability (HCC-44; first compound 0.03162 µM) of 0.517, a relative viability (HCC-44; first compound 0.1 µM) of 0.37 and a relative viability (Calu-6; first compound 0.001 µM) of 0.893. For the same compound, the relative viability (Calu-6; first compound 0.003162 µM) was 0.919, the relative viability (Calu-6; first compound 0.01 µM) was 1.06 and the relative viability (Calu-6; first compound 0.03162 µM) was 0.864. It also gave a relative viability (Calu-6; first compound 0.1 µM) of 0.827, a relative viability (HCC-78; first compound 0.001 µM) of 0.211 and a relative viability (HCC-78; first compound 0.003162 µM) of 0.178. The relative viability (HCC-78; first compound 0.01 µM) was 0.198, the relative viability (HCC-78; first compound 0.03162 µM) was 0.202 and the relative viability (HCC-78; first compound 0.1 µM) was 0.224. The relative viability (NCI-H1563; first compound 0.001 µM) was 0.553, the relative viability (NCI-H1563; first compound 0.003162 µM) was 0.608 and the relative viability (NCI-H1563; first compound 0.01 µM) was 0.649. The relative viability (NCI-H1563; first compound 0.03162 µM) was 0.602, the relative viability (NCI-H1563; first compound 0.1 µM) was 0.46 and the relative viability (IA-LM; first compound 0.001 µM) was 0.36. The relative viability (IA-LM; first compound 0.003162 µM) was 0.431, the relative viability (IA-LM; first compound 0.01 µM) was 0.426 and the relative viability (IA-LM; first compound 0.03162 µM) was 0.209. The relative viability (IA-LM; first compound 0.1 µM) was 0.41, the relative viability (NCI-H2087; first compound 0.001 µM) was 0.759 and the relative viability (NCI-H2087; first compound 0.003162 µM) was 0.846. For the same compound, the relative viability (NCI-H2087; first compound 0.01 µM) was 0.984, the relative viability (NCI-H2087; first compound 0.03162 µM) was 0.606 and the relative viability (NCI-H2087; first compound 0.1 µM) was 0.32. The relative viability (NCI-H1299; first compound 0.001 µM) was 0.611, the relative viability (NCI-H1299; first compound 0.003162 µM) was 1.12 and the relative viability (NCI-H1299; first compound 0.01 µM) was 0.887. The relative viability (NCI-H1299; first compound 0.03162 µM) was 0.495, the relative viability (NCI-H1299; first compound 0.1 µM) was 0.396 and the relative viability (EBC-1; first compound 0.003162 µM) was 0.287. The relative viability (EBC-1; first compound 0.01 µM) was 0.313, the relative viability (EBC-1; first compound 0.03162 µM) was 0.289 and the relative viability (EBC-1; first compound 0.1 µM) was 0.253. For the same compound, the relative viability (NCI-H322M; first compound 0.001 µM) was 0.651, the relative viability (NCI-H322M; first compound 0.003162 µM) was 0.503 and the relative viability (NCI-H322M; first compound 0.03162 µM) was 0.529. For the same compound, the relative viability (NCI-H322M; first compound 0.1 µM) was 0.528.
For `Cc1cn(-c2cc(NC(=O)c3ccc(C)c(Nc4nccc(-c5cccnc5)n4)c3)cc(C(F)(F)F)c2)cn1` [Nilotinib] + C[C@@H](Oc1cc(-c2cnn(C3CCNCC3)c2)cnc1N)c1c(Cl)ccc(F)c1Cl [Crizotinib] (partner 1 µM), the relative viability (A549; first compound 0.001 µM) was 0.916, the relative viability (A549; first compound 0.003162 µM) was 0.976 and the relative viability (A549; first compound 0.01 µM) was 1.09. It also gave a relative viability (A549; first compound 0.03162 µM) of 0.501, a relative viability (A549; first compound 0.1 µM) of 0.547 and a relative viability (NCI-H1703; first compound 0.003162 µM) of 0.403. It also gave a relative viability (NCI-H1703; first compound 0.01 µM) of 0.291, a relative viability (NCI-H1703; first compound 0.03162 µM) of 0.191 and a relative viability (NCI-H1703; first compound 0.1 µM) of 0.175. It also gave a relative viability (HCC-44; first compound 0.001 µM) of 0.799, a relative viability (HCC-44; first compound 0.003162 µM) of 0.978 and a relative viability (HCC-44; first compound 0.01 µM) of 1.01. The relative viability (HCC-44; first compound 0.03162 µM) was 0.717, the relative viability (HCC-44; first compound 0.1 µM) was 0.754 and the relative viability (Calu-6; first compound 0.001 µM) was 0.677. The relative viability (Calu-6; first compound 0.003162 µM) was 0.798, the relative viability (Calu-6; first compound 0.01 µM) was 1.19 and the relative viability (Calu-6; first compound 0.03162 µM) was 0.548. It also gave a relative viability (Calu-6; first compound 0.1 µM) of 0.637, a relative viability (HCC-78; first compound 0.001 µM) of 0.351 and a relative viability (HCC-78; first compound 0.003162 µM) of 0.239. It also gave a relative viability (HCC-78; first compound 0.01 µM) of 0.432, a relative viability (HCC-78; first compound 0.03162 µM) of 0.333 and a relative viability (HCC-78; first compound 0.1 µM) of 0.361. The relative viability (NCI-H1563; first compound 0.001 µM) was 0.772, the relative viability (NCI-H1563; first compound 0.003162 µM) was 0.856 and the relative viability (NCI-H1563; first compound 0.01 µM) was 0.757. The relative viability (NCI-H1563; first compound 0.03162 µM) was 0.914, the relative viability (NCI-H1563; first compound 0.1 µM) was 0.739 and the relative viability (IA-LM; first compound 0.003162 µM) was 0.77. The relative viability (IA-LM; first compound 0.01 µM) was 0.835, the relative viability (IA-LM; first compound 0.03162 µM) was 0.637 and the relative viability (IA-LM; first compound 0.1 µM) was 0.659. For the same compound, the relative viability (NCI-H2087; first compound 0.001 µM) was 0.626, the relative viability (NCI-H2087; first compound 0.003162 µM) was 0.806 and the relative viability (NCI-H2087; first compound 0.01 µM) was 0.947. It also gave a relative viability (NCI-H2087; first compound 0.03162 µM) of 0.702, a relative viability (NCI-H2087; first compound 0.1 µM) of 0.667 and a relative viability (NCI-H1299; first compound 0.001 µM) of 0.925. For the same compound, the relative viability (NCI-H1299; first compound 0.003162 µM) was 1.01, the relative viability (NCI-H1299; first compound 0.01 µM) was 1.07 and the relative viability (NCI-H1299; first compound 0.03162 µM) was 0.918. For the same compound, the relative viability (NCI-H1299; first compound 0.1 µM) was 0.969, the relative viability (EBC-1; first compound 0.001 µM) was 0.216 and the relative viability (EBC-1; first compound 0.003162 µM) was 0.202. The relative viability (EBC-1; first compound 0.01 µM) was 0.174, the relative viability (EBC-1; first compound 0.03162 µM) was 0.157 and the relative viability (EBC-1; first compound 0.1 µM) was 0.164. The relative viability (NCI-H322M; first compound 0.001 µM) was 1.06, the relative viability (NCI-H322M; first compound 0.003162 µM) was 0.869 and the relative viability (NCI-H322M; first compound 0.03162 µM) was 0.727. It also gave a relative viability (NCI-H322M; first compound 0.1 µM) of 0.984.
